Laboratory results taken from US20250353873A1, “COMPOUNDS AND METHODS FOR MODULATING APOE EXPRESSION” (Ionis Pharmaceuticals, Inc., priority 2024, published 2025).
Strand notation (5' to 3'): a small letter for the sugar, then the base; units joined by * are phosphorothioate-linked, units joined directly phosphodiester-linked; [ ] holds rarer units or linkages, { } end groups; capitals alone tell only the bases. [ms] = mesyl phosphoramidate linkage; e = 2'-O-(2-methoxyethyl) (MOE); [5mC] = 5-methylcytosine; d = 2'-deoxy (DNA)

Legend:
human APOE RNA [1] = test: Activity in APOE C57BL/6NTac-Apoeem7250 knock-in mice, single ICV bolus, 8 weeks (Example 11); type: in vivo; details: single ICV bolus 300 μg, 8 weeks post treatment, normalized to mouse Ppia
Description: Modified oligonucleotides described above were tested in the APOE C57BL/6NTac-Apoeem7250 knock-in mouse model described above.
Each mouse received a single ICV bolus of 300 μg of modified oligonucleotide. A group of 3-4 mice received a single ICV bolus with PBS as a negative control.
Eight weeks post treatment, mice were sacrificed and RNA was extracted from cortical brain tissue and spinal cord for quantitative real-time RT-PCR analysis of RNA expression of APOE using human primer probe set RTS3073 (described herein above). APOE RNA levels were normalized to mouse Ppia. Mouse Ppia was amplified using primer probe set m_cyclo24 (described herein above). Results are presented as percent human APOE RNA relative to the amount of human APOE RNA in PBS treated animals, (% control). Each experiment is identified in separate tables below.

human APOE RNA [2] = test: Activity in APOE C57BL/6NTac-Apoeem7250 knock-in mice, single ICV bolus, 16 weeks (Example 12); type: in vivo; details: single ICV bolus 300 μg, 16 weeks post treatment, normalized to mouse Ppia
How it was run: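 A single 300 μg intracerebroventricular dose was given, with PBS-treated mice as reference; cortical and spinal cord tissue was taken 16 weeks later. RT-qPCR quantified human APOE RNA, Ppia-normalized, expressed relative to PBS animals (% control).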

Substance: 1693043: 5-10-5 MOE gapmer CTTGGTGAATCTTTATTAAA, linkages sssoszzzzssssssosss (antisense e[5mC]*eT*eT*eGeG*dT[ms]dG[ms]dA[ms]dA[ms]dT*d[5mC]*dT*dT*dT*dA*eTeT*eA*eA*eA) [compound 1693043]
- APOE RNA (% control) Cortex (human APOE RNA [1]): 89 % control
- APOE RNA (% control) Spinal Cord (human APOE RNA [1]): 83 % control
- APOE RNA (% control) Cortex (human APOE RNA [2]): 80 % control
- APOE RNA (% control) Spinal Cord (human APOE RNA [2]): 73 % control

Substance: 1681004: 5-10-5 MOE gapmer GGTGAATCTTTATTAAACTA, linkages ssooszsssszzszsooss (antisense eG*eG*eTeGeA*dA[ms]dT*d[5mC]*dT*dT*dT[ms]dA[ms]dT*dT[ms]dA*eAeAe[5mC]*eT*eA) [compound 1681004]
- APOE RNA (% control) Cortex (human APOE RNA [1]): 120 % control
- APOE RNA (% control) Spinal Cord (human APOE RNA [1]): 89 % control
- APOE RNA (% control) Cortex (human APOE RNA [2]): 127 % control
- APOE RNA (% control) Spinal Cord (human APOE RNA [2]): 61 % control

Substance: 1652903: 6-10-4 MOE gapmer ACTTGGTGAATCTTTATTAA, linkages sooooossssssssssoss (antisense eA*e[5mC]eTeTeGeGdT*dG*dA*dA*dT*d[5mC]*dT*dT*dT*dA*eTeT*eA*eA) [compound 1652903]
- APOE RNA (% control) Cortex (human APOE RNA [1]): 49 % control
- APOE RNA (% control) Spinal Cord (human APOE RNA [1]): 19 % control
- APOE RNA (% control) Cortex (human APOE RNA [2]): 87 % control
- APOE RNA (% control) Spinal Cord (human APOE RNA [2]): 39 % control

Substance: 1693044: 5-10-5 MOE gapmer CTTGGTGAATCTTTATTAAA, linkages sssoszzzzssssssssss (antisense e[5mC]*eT*eT*eGeG*dT[ms]dG[ms]dA[ms]dA[ms]dT*d[5mC]*dT*dT*dT*dA*eT*eT*eA*eA*eA) [compound 1693044]
- APOE RNA (% control) Cortex (human APOE RNA [1]): 86 % control
- APOE RNA (% control) Spinal Cord (human APOE RNA [1]): 95 % control
- APOE RNA (% control) Cortex (human APOE RNA [2]): 98 % control
- APOE RNA (% control) Spinal Cord (human APOE RNA [2]): 63 % control

Substance: 1681006: 5-10-5 MOE gapmer GGTGAATCTTTATTAAACTA, linkages ssssszsssszzszzssss (antisense eG*eG*eT*eG*eA*dA[ms]dT*d[5mC]*dT*dT*dT[ms]dA[ms]dT*dT[ms]dA[ms]eA*eA*e[5mC]*eT*eA) [compound 1681006]
- APOE RNA (% control) Cortex (human APOE RNA [1]): 85 % control
- APOE RNA (% control) Spinal Cord (human APOE RNA [1]): 71 % control
- APOE RNA (% control) Cortex (human APOE RNA [2]): 120 % control
- APOE RNA (% control) Spinal Cord (human APOE RNA [2]): 80 % control

Substance: 1693040: 5-10-5 MOE gapmer CTTGGTGAATCTTTATTAAA, linkages sssosszzzssssssosss (antisense e[5mC]*eT*eT*eGeG*dT*dG[ms]dA[ms]dA[ms]dT*d[5mC]*dT*dT*dT*dA*eTeT*eA*eA*eA) [compound 1693040]
- APOE RNA (% control) Cortex (human APOE RNA [1]): 80 % control
- APOE RNA (% control) Spinal Cord (human APOE RNA [1]): 77 % control
- APOE RNA (% control) Cortex (human APOE RNA [2]): 92 % control
- APOE RNA (% control) Spinal Cord (human APOE RNA [2]): 71 % control

Substance: 1681005: 5-10-5 MOE gapmer GGTGAATCTTTATTAAACTA, linkages ssssszsssszzszsssss (antisense eG*eG*eT*eG*eA*dA[ms]dT*d[5mC]*dT*dT*dT[ms]dA[ms]dT*dT[ms]dA*eA*eA*e[5mC]*eT*eA) [compound 1681005]
- APOE RNA (% control) Cortex (human APOE RNA [1]): 101 % control
- APOE RNA (% control) Spinal Cord (human APOE RNA [1]): 70 % control
- APOE RNA (% control) Cortex (human APOE RNA [2]): 116 % control
- APOE RNA (% control) Spinal Cord (human APOE RNA [2]): 68 % control

Substance: 1693047: 5-10-5 MOE gapmer CTTGGTGAATCTTTATTAAA, linkages sssoszzzzssssszosss (antisense e[5mC]*eT*eT*eGeG*dT[ms]dG[ms]dA[ms]dA[ms]dT*d[5mC]*dT*dT*dT*dA[ms]eTeT*eA*eA*eA) [compound 1693047]
- APOE RNA (% control) Cortex (human APOE RNA [1]): 78 % control
- APOE RNA (% control) Spinal Cord (human APOE RNA [1]): 77 % control
- APOE RNA (% control) Cortex (human APOE RNA [2]): 97 % control
- APOE RNA (% control) Spinal Cord (human APOE RNA [2]): 71 % control

Substance: 1681021: 5-10-5 MOE gapmer GGTGAATCTTTATTAAACTA, linkages zsssszsssszzssssssz (antisense eG[ms]eG*eT*eG*eA*dA[ms]dT*d[5mC]*dT*dT*dT[ms]dA[ms]dT*dT*dA*eA*eA*e[5mC]*eT[ms]eA) [compound 1681021]
- APOE RNA (% control) Cortex (human APOE RNA [1]): 55 % control
- APOE RNA (% control) Spinal Cord (human APOE RNA [1]): 68 % control
- APOE RNA (% control) Cortex (human APOE RNA [2]): 91 % control
- APOE RNA (% control) Spinal Cord (human APOE RNA [2]): 40 % control

Substance: 1681020: 5-10-5 MOE gapmer GGTGAATCTTTATTAAACTA, linkages zsssszsssszzszssssz (antisense eG[ms]eG*eT*eG*eA*dA[ms]dT*d[5mC]*dT*dT*dT[ms]dA[ms]dT*dT[ms]dA*eA*eA*e[5mC]*eT[ms]eA) [compound 1681020]
- APOE RNA (% control) Cortex (human APOE RNA [1]): 63 % control
- APOE RNA (% control) Spinal Cord (human APOE RNA [1]): 35 % control
- APOE RNA (% control) Cortex (human APOE RNA [2]): 92 % control
- APOE RNA (% control) Spinal Cord (human APOE RNA [2]): 59 % control

Substance: 1693084: 6-10-4 MOE gapmer TTGGTGAATCTTTATTAAAC, linkages ssssszzzszsszzsssss (eT*eT*eG*eG*eT*eG[ms]dA[ms]dA[ms]dT*d[5mC][ms]dT*dT*dT[ms]dA[ms]dT*dT*eA*eA*eA*e[5mC]) [compound 1693084]
- APOE RNA (% control) Cortex (human APOE RNA [1]): 72 % control
- APOE RNA (% control) Spinal Cord (human APOE RNA [1]): 115 % control
- APOE RNA (% control) Cortex (human APOE RNA [2]): 89 % control
- APOE RNA (% control) Spinal Cord (human APOE RNA [2]): 86 % control

Substance: 1693052: 5-10-5 MOE gapmer TTGGTGAATCTTTATTAAAC, linkages sossszzzsssssssosss (antisense eT*eTeG*eG*eT*dG[ms]dA[ms]dA[ms]dT*d[5mC]*dT*dT*dT*dA*dT*eTeA*eA*eA*e[5mC]) [compound 1693052]
- APOE RNA (% control) Cortex (human APOE RNA [1]): 65 % control
- APOE RNA (% control) Spinal Cord (human APOE RNA [1]): 79 % control
- APOE RNA (% control) Cortex (human APOE RNA [2]): 91 % control
- APOE RNA (% control) Spinal Cord (human APOE RNA [2]): 85 % control

Substance: 1693049: 5-10-5 MOE gapmer CTTGGTGAATCTTTATTAAA, linkages ssssszzzzssssszssss (antisense e[5mC]*eT*eT*eG*eG*dT[ms]dG[ms]dA[ms]dA[ms]dT*d[5mC]*dT*dT*dT*dA[ms]eT*eT*eA*eA*eA) [compound 1693049]
- APOE RNA (% control) Cortex (human APOE RNA [1]): 101 % control
- APOE RNA (% control) Spinal Cord (human APOE RNA [1]): 96 % control
- APOE RNA (% control) Cortex (human APOE RNA [2]): 93 % control
- APOE RNA (% control) Spinal Cord (human APOE RNA [2]): 81 % control

Substance: 1693085: 6-10-4 MOE gapmer TTGGTGAATCTTTATTAAAC, linkages ssssszzzsssszzsssss (eT*eT*eG*eG*eT*eG[ms]dA[ms]dA[ms]dT*d[5mC]*dT*dT*dT[ms]dA[ms]dT*dT*eA*eA*eA*e[5mC]) [compound 1693085]
- APOE RNA (% control) Cortex (human APOE RNA [1]): 86 % control
- APOE RNA (% control) Spinal Cord (human APOE RNA [1]): 79 % control
- APOE RNA (% control) Cortex (human APOE RNA [2]): 93 % control
- APOE RNA (% control) Spinal Cord (human APOE RNA [2]): 71 % control

Substance: 1681003: 5-10-5 MOE gapmer GGTGAATCTTTATTAAACTA, linkages soooszsssszzszsooss (antisense eG*eGeTeGeA*dA[ms]dT*d[5mC]*dT*dT*dT[ms]dA[ms]dT*dT[ms]dA*eAeAe[5mC]*eT*eA) [compound 1681003]
- APOE RNA (% control) Cortex (human APOE RNA [1]): 90 % control
- APOE RNA (% control) Spinal Cord (human APOE RNA [1]): 48 % control
- APOE RNA (% control) Cortex (human APOE RNA [2]): 106 % control
- APOE RNA (% control) Spinal Cord (human APOE RNA [2]): 61 % control

Substance: 1681007: 5-10-5 MOE gapmer GGTGAATCTTTATTAAACTA, linkages zsssszsssszzszssszz (antisense eG[ms]eG*eT*eG*eA*dA[ms]dT*d[5mC]*dT*dT*dT[ms]dA[ms]dT*dT[ms]dA*eA*eA*e[5mC][ms]eT[ms]eA) [compound 1681007]
- APOE RNA (% control) Cortex (human APOE RNA [1]): 71 % control
- APOE RNA (% control) Spinal Cord (human APOE RNA [1]): 47 % control
- APOE RNA (% control) Cortex (human APOE RNA [2]): 96 % control
- APOE RNA (% control) Spinal Cord (human APOE RNA [2]): 67 % control

Substance: 1693045: 5-10-5 MOE gapmer CTTGGTGAATCTTTATTAAA, linkages ssssozzzzssssssssss (antisense e[5mC]*eT*eT*eG*eGdT[ms]dG[ms]dA[ms]dA[ms]dT*d[5mC]*dT*dT*dT*dA*eT*eT*eA*eA*eA) [compound 1693045]
- APOE RNA (% control) Cortex (human APOE RNA [1]): 88 % control
- APOE RNA (% control) Spinal Cord (human APOE RNA [1]): 86 % control
- APOE RNA (% control) Cortex (human APOE RNA [2]): 93 % control
- APOE RNA (% control) Spinal Cord (human APOE RNA [2]): 60 % control

Substance: 1693082: 6-10-4 MOE gapmer TTGGTGAATCTTTATTAAAC, linkages ssssoozzszssszsssss (eT*eT*eG*eG*eTeGdA[ms]dA[ms]dT*d[5mC][ms]dT*dT*dT*dA[ms]dT*dT*eA*eA*eA*e[5mC]) [compound 1693082]
- APOE RNA (% control) Cortex (human APOE RNA [1]): 113 % control
- APOE RNA (% control) Spinal Cord (human APOE RNA [1]): 54 % control
- APOE RNA (% control) Cortex (human APOE RNA [2]): 81 % control
- APOE RNA (% control) Spinal Cord (human APOE RNA [2]): 72 % control
